# Measurements: PMC10545747, “Development of cyclopeptide inhibitors of cGAS targeting protein-DNA interaction and phase separation” (Nature Communications, 2023)
# Values joined by “and” are separate entries in the source; they are usually repeats but may differ in a detail not shown here. Equal values may be shown once. Square brackets hold non-standard residues; d marks the D form. Peptide text beside a SMILES is read from it.
# Molecular target: T1, recombinant human cGAS enzyme (hcGAS-ΔN, residues 147–522) (Homo sapiens, UniProt Q8N884)
# T1 construct: N-terminally truncated human cGAS (hcGAS-ΔN, residues 147–522); 6xHis-SUMO (N, cleaved yes); made in house; host or cells: Escherichia coli BL21 (DE3)
# Test: RNA-based fluorescent biosensor assay of cGAS activity (2',3'-cGAMP formation), in vitro screening
# Format: biochemical
# Conditions: for Inhibition % / inhibition at 20 µM: peptides screened at 20 μM, Supplementary Table 1 / Fig. S5b; for inhibition at 20 µM: read-out: Inhibition %; for Remaining activity (%), Fig. 1a source data / remaining activity at 20 µM: 20 μM, replicate values; for remaining activity at 20 µM: read-out: Remaining activity (%), Fig. 1a source data
# Excerpt: To screen direct cGAS inhibitors targeting protein-DNA interface from our developed focused library of macrocyclic peptides, we applied an RNA-based fluorescent biosensor for 2’,3’-cGAMP to detect cGAS activity in vitro (Supplementary Fig. 1a)[49]. The formation of 2’,3’-cGAMP from ATP and GTP was catalyzed by recombinant human cGAS enzyme (hcGAS-ΔN, residues 147–522, Supplementary Fig. 1b) in the presence of ISD (interferon stimulatory DNA, a 45-bp dsDNA), which was readily quantified by the RNA-based fluorescent biosensor and was further confirmed by ion exchange chromatography (Supplementary Fig. 1c). […] Subsequently, a total of 90 macrocyclic peptides were screened at a concentration of 20 μM (Fig. 1a and Supplementary Fig. 1e), and 4 hits (XQ2, XQ8, XQ19, and XQ46) were obtained for further testing at a cut-off of 40% inhibition (Supplementary Table 1). To evaluate the inhibitory effect of the hits against cGAS in cells, we employed real-time quantitative PCR (qPCR) to examine mRNA levels of IFNΒ1 in THP1 cells. The reported cGAS inhibitor RU.521 was used as the positive control, and the non-active peptide XQ28 in the screening assay was used as the negative control. […] The inhibition of cGAS by these hits was further confirmed in the reporter cell line THP1-Lucia ISG (Invivogen) that expresses secreted luciferase induced by an IRF3-inducible ISG54 promoter (Fig. 1c). The discrepancy between the inhibitory effect of the hits in protein and cellular assays may be attributed to their different cellular permeability.
# The high-throughput screening (HTS) experiments of cGAS activity are based on the method previously described. To initiate the enzyme reaction, ISD was added to the reaction solution (40 mM Tris-HCl, pH 7.5, 100 mM NaCl, 10 mM MgCl2) containing hcGAS-ΔN, ATP (Sangon Biotech, Cat# A600311) and GTP (Sangon Biotech, Cat# A620332) in a total volume of 20 ul with the final concentration of 0.5 μM, 1.5 μM, 1 mM, 1 mM, respectively, and incubated for 2 h at 37 °C. For HTS experiments, compounds were added to the same reaction conditions as described above with the final concentration of 20 μM. Z’ factors were calculated from three replicates in the 384-well plate.
# T1 sequence (Q8N884 147-522, stated change not applied): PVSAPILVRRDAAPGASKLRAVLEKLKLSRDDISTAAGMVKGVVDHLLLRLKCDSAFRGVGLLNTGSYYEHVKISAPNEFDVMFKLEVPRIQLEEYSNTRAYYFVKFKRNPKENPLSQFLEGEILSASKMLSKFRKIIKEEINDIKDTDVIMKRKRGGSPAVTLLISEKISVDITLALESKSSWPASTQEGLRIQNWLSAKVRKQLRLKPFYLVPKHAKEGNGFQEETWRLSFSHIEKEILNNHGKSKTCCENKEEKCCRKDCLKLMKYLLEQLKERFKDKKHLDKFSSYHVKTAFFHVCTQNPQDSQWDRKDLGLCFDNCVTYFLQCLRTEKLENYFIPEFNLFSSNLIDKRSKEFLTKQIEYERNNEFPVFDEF
Compound,Inhibition % [%],inhibition at 20 µM [%],"Remaining activity (%), Fig. 1a source data",remaining activity at 20 µM [%]
Cyclo (LfPTDLf(K(Alloc))VR) [XQ72],0,–,–,–
"CC(C)C[C@@H]1NC(=O)[C@H](CCCNC(=N)N)NC(=O)[C@H](C(C)C)NC(=O)[C@@H]2CCCN2C(=O)[C@@H](Cc2ccccc2)NC(=O)[C@H](CC(C)C)NC(=O)[C@H](CCCNC(=N)N)NC(=O)[C@H](CC(C)C)NC(=O)[C@@H]2CCCN2C(=O)[C@@H](Cc2ccccc2)NC1=O [XQ54, Cyclo (LfPLRLfPVR)] (cyclo(LRL[dF]PVRL[dF]P))",–,0,–,–
Cyclo (LwPTDLf(K(Dde))(V(NMe))R) [XQ62],0,–,–,–
"CC(C)C[C@@H]1NC(=O)[C@H](CCCNC(=N)N)NC(=O)[C@H](C(C)C)NC(=O)[C@@H]2CCCN2C(=O)[C@@H](Cc2ccccc2)NC(=O)[C@H](CC(C)C)NC(=O)[C@H](CC(=O)O)NC(=O)[C@H](CCC(N)=O)NC(=O)[C@@H]2CCCN2C(=O)[C@@H](Cc2ccccc2)NC1=O [XQ68, Cyclo (LfPQDLfPVR)] (cyclo(DL[dF]PVRL[dF]PQ))",–,0,–,–
"CC(C)C[C@@H]1NC(=O)[C@H](CC(=O)O)NC(=O)[C@H](C(C)C)NC(=O)[C@@H]2CCCN2C(=O)[C@@H](Cc2ccccc2)NC(=O)[C@H](C)NC(=O)[C@H](CCCNC(=N)N)NC(=O)[C@H](C)NC(=O)[C@@H]2CCCN2C(=O)[C@@H](Cc2ccccc2)NC1=O [XQ58, Cyclo (AfPVDLfPAR)] (cyclo(ARA[dF]PVDL[dF]P))",–,0,–,–
"CC(C)C[C@@H]1NC(=O)[C@H](CCCNC(=N)N)NC(=O)[C@H](C(C)C)NC(=O)[C@@H]2CCCN2C(=O)[C@@H](Cc2ccccc2)NC(=O)[C@H](C)NC(=O)[C@H](CCCNC(=N)N)NC(=O)[C@H](C(C)C)NC(=O)[C@@H]2CCCN2C(=O)[C@@H](Cc2ccccc2)NC1=O [XQ5, Cyclo (AfPVRLfPVR)] (cyclo(A[dF]PVRL[dF]PVR))",–,8,92.0132% and 91.3002%,92.3
"CC(C)[C@@H]1NC(=O)[C@H](C)NC(=O)[C@@H](Cc2ccccc2)NC(=O)[C@H](C)NC(=O)[C@H](CCCNC(=N)N)NC(=O)[C@H](C(C)C)NC(=O)[C@@H]2CCCN2C(=O)[C@@H](Cc2ccccc2)NC(=O)[C@H](C)NC(=O)[C@H](CCCNC(=N)N)NC1=O [XQ20, Cyclo (AfAVRAfPVR)] (cyclo(AVRA[dF]PVRA[dF]))",–,11,88.8732% and 88.6928%,89.1

# Further lines, results first:
Inhibition % [%],inhibition at 20 µM [%],"Remaining activity (%), Fig. 1a source data",remaining activity at 20 µM [%],Compound
–,0,99.3962% and 98.6078%,102,"CC(C)[C@@H]1NC(=O)[C@@H]2CCCN2C(=O)[C@@H](C)NC(=O)[C@H](C)NC(=O)[C@H](CCCNC(=N)N)NC(=O)[C@H](C(C)C)NC(=O)[C@@H]2CCCN2C(=O)[C@@H](Cc2ccccc2)NC(=O)[C@H](C)NC(=O)[C@H](CCCNC(=N)N)NC1=O [XQ22, Cyclo (AaPVRAfPVR)] (cyclo(A[dA]PVRA[dF]PVR))"
–,16,84.7804% and 84.3938%,84.5,"CC(C)C[C@@H]1NC(=O)[C@H](C)NC(=O)[C@H](C(C)C)NC(=O)[C@@H]2CCCN2C(=O)[C@@H](Cc2ccccc2)NC(=O)[C@H](CC(C)C)NC(=O)[C@H](CCCNC(=N)N)NC(=O)[C@H](C(C)C)NC(=O)[C@@H]2CCCN2C(=O)[C@@H](Cc2ccccc2)NC1=O [XQ4, Cyclo (LfPVALfPVR)] (cyclo(AL[dF]PVRL[dF]PV))"
–,30,70.1575% and 70.5622%,69.4,"CC(C)C[C@@H]1NC(=O)[C@H](CCCNC(=N)N)NC(=O)[C@H]([C@@H](C)O)NC(=O)[C@@H]2CCCN2C(=O)[C@@H](C(C)C)NC(=O)[C@H](CC(C)C)NC(=O)[C@H](CCCNC(=N)N)NC(=O)[C@H]([C@@H](C)O)NC(=O)[C@@H]2CCCN2C(=O)[C@@H](Cc2ccccc2)NC1=O [XQ31, Cyclo (LvPTRLfPTR)] (cyclo(L[dF]PTRL[dV]PTR))"
